# Read-outs that look alike come from different tables or passages of the source.
# Tests used:
# [1] = system: THP-1 (acute monocytic leukemia); experiment: CIMA assay, cell viability, THP-1; conditions: for Fold change in viability AVG: THP-1
# [2] = system: CCD1079SK (fibroblast, noncancerous but proliferating); experiment: CIMA assay, cell viability, CCD1079SK; conditions: CCD
# Procedure: (§1) Stock solutions of the extracts were prepared in dimethylsulfoxide (DMSO) at 10 mg/mL and stored in 200 μl aliquots at −20° C. until analysis. This preparation ensured that the DMSO delivered to cells in culture never exceeded 1%.
# (§2) Prepared extracts were assessed following chronic exposure conditions in which cells were seeded at 2×10^3 cells/well (96 well-plate) and incubated with test compounds for 72 h. Each compound was evaluated over a range of concentrations (0, 10, 25, 50 or 100 μg/ml). Cell proliferation was initially assessed using a standard colorimetric indicator of metabolic activity (CIMA) assay. In this assay, tetrazole reduction was evaluated as a measure of metabolic function that evaluates mitochondrial activity to determine the extent of cell proliferation within a culture. This assay is based on the reduction of yellow tetrazolium salt to purple formazan by mitochondrial reductases enzyme in viable cells, resulting in a color changed that confers a change in absorbance.
# [3] = CIMA assay, cell viability, CCD1079SK; conditions: human, Average cell viability, CCD
# Procedure: as §1, §2
# A549 (lung carcinoma) = experiment: CIMA assay (colorimetric indicator of metabolic activity), cell viability, A549; conditions: for Fold change in viability AVG: A549
# Procedure: as §1, §2
# MDA-MB [4] = conditions: MDA-MB
# PC3 = experiment: CIMA assay, cell viability, PC3; conditions: for Fold change in viability AVG: PC3
# [5] = system: U373 (glioblastoma-astrocytoma); experiment: CIMA assay, cell viability, U373; conditions: for Fold change in viability AVG: U373
# Procedure: as §1, §2
# [6] = system: SKOV3 (ovarian adenocarcinoma); experiment: CIMA assay, cell viability, SKOV3; conditions: for Fold change in viability AVG: SKOV
# MDA-MB [7] = experiment: cells; conditions: Homo sapiens, read-out: Average cell viability, MDA-MB
structure (smiles),measurement,setting,value
"CC/C=C\C/C=C\C/C=C\C/C=C\C/C=C\CCCC(=O)OCC(O)COC1OC(CO)C(O)C(O)C1O (stereo not shown) [Compound 13, lyso-MGDG C20:5]",viability at 1 µg/mL,"[1]; Homo sapiens, THP-1, read-out: Average cell viability, THP-1, 1 ug/mL",104%
same,viability at 10 µg/mL,"[1]; Homo sapiens, THP-1, read-out: Average cell viability, THP-1, 10 ug/mL",101%
same,viability at 50 µg/mL,"[1]; Homo sapiens, THP-1, read-out: Average cell viability, THP-1, 50 ug/mL",40%
same,viability at 100 µg/mL,"[1]; Homo sapiens, THP-1, read-out: Average cell viability, THP-1, 100 ug/mL",27%
same,THP-1 AVG,"[1]; THP-1, sample at 1 ug/mL",1.19
same,THP-1 AVG,"[1]; THP-1, sample at 10 ug/mL",1.14
same,THP-1 AVG,"[1]; THP-1, sample at 50 ug/mL",0.46
same,THP-1 AVG,"[1]; THP-1, sample at 100 ug/mL",0.31
same,Fold change in viability AVG,[1]; 1 ug/mL,1.19
same,Fold change in viability AVG,[1]; 10 ug/mL,1.14
same,Fold change in viability AVG,[1]; 50 ug/mL,0.46
same,Fold change in viability AVG,[1]; 100 ug/mL,0.31
same,Fold change in viability AVG,[2]; 1 ug/mL,1.13
same,Fold change in viability AVG,[2]; 10 ug/mL,1.09
same,Fold change in viability AVG,[2]; 50 ug/mL,0.24
same,Fold change in viability AVG,[2]; 100 ug/mL,0.15
same,"viability at 72 h, 1 ug/mL","[3]; CCD1079SK fibroblast cells (noncancerous, proliferating), 1 ug/mL",103%
same,"viability at 72 h, 10 ug/mL","[3]; CCD1079SK fibroblasts (noncancerous, proliferating), 10 ug/mL",99%
same,"viability at 72 h, 50 ug/mL","[3]; CCD1079SK fibroblasts (noncancerous, proliferating), 50 ug/mL",22%
same,"viability at 72 h, 100 ug/mL","[3]; CCD1079SK fibroblasts (noncancerous, proliferating), 100 ug/mL",14%
same,A549 AVG,"A549 (lung carcinoma); A549, sample at 1 ug/mL",0.67
same,A549 AVG,"A549 (lung carcinoma); A549, sample at 10 ug/mL",0.64
same,A549 AVG,"A549 (lung carcinoma); A549, sample at 50 ug/mL",0.67
same,A549 AVG,"A549 (lung carcinoma); A549, sample at 100 ug/mL",0.38
same,Fold change in viability AVG,A549 (lung carcinoma); 1 ug/mL,0.67
same,Fold change in viability AVG,A549 (lung carcinoma); 10 ug/mL,0.64
same,Fold change in viability AVG,A549 (lung carcinoma); 50 ug/mL,0.67
same,Fold change in viability AVG,A549 (lung carcinoma); 100 ug/mL,0.38
same,viability at 1 µg/mL,"A549 (lung carcinoma); Homo sapiens, A549, read-out: Average cell viability, A549, 1 ug/mL",57%
same,viability at 10 µg/mL,"A549 (lung carcinoma); Homo sapiens, A549, read-out: Average cell viability, A549, 10 ug/mL",55%
same,viability at 50 µg/mL,"A549 (lung carcinoma); Homo sapiens, A549, read-out: Average cell viability, A549, 50 ug/mL",57%
same,viability at 100 µg/mL,"A549 (lung carcinoma); Homo sapiens, A549, read-out: Average cell viability, A549, 100 ug/mL",32%
same,MDA-MB AVG,MDA-MB [4]; sample at 1 ug/mL,1.11
same,MDA-MB AVG,MDA-MB [4]; sample at 10 ug/mL,1.14
same,MDA-MB AVG,MDA-MB [4]; sample at 50 ug/mL,0.33
same,MDA-MB AVG,MDA-MB [4]; sample at 100 ug/mL,0.28
same,Fold change in viability AVG,MDA-MB [4]; 1 ug/mL,1.11
same,Fold change in viability AVG,MDA-MB [4]; 10 ug/mL,1.14
same,Fold change in viability AVG,MDA-MB [4]; 50 ug/mL,0.33
same,Fold change in viability AVG,MDA-MB [4]; 100 ug/mL,0.28
same,viability at 1 µg/mL,"PC3; Homo sapiens, PC-3, read-out: Average cell viability, PC3, 1 ug/mL",104%
same,viability at 10 µg/mL,"PC3; Homo sapiens, PC-3, read-out: Average cell viability, PC3, 10 ug/mL",97%
same,viability at 50 µg/mL,"PC3; Homo sapiens, PC-3, read-out: Average cell viability, PC3, 50 ug/mL",16%
same,viability at 100 µg/mL,"PC3; Homo sapiens, PC-3, read-out: Average cell viability, PC3, 100 ug/mL",12%
same,PC3 AVG,"PC3; PC3, sample at 1 ug/mL",1.08
same,PC3 AVG,"PC3; PC3, sample at 10 ug/mL",1.01
same,PC3 AVG,"PC3; PC3, sample at 50 ug/mL",0.16
same,PC3 AVG,"PC3; PC3, sample at 100 ug/mL",0.12
same,Fold change in viability AVG,PC3; 1 ug/mL,1.08
same,Fold change in viability AVG,PC3; 10 ug/mL,1.01
same,Fold change in viability AVG,PC3; 50 ug/mL,0.16
same,Fold change in viability AVG,PC3; 100 ug/mL,0.12
same,viability at 1 µg/mL,"[5]; Homo sapiens, U373 MG, read-out: Average cell viability, U373, 1 ug/mL",111%
same,viability at 10 µg/mL,"[5]; Homo sapiens, U373 MG, read-out: Average cell viability, U373, 10 ug/mL",100%
same,viability at 50 µg/mL,"[5]; Homo sapiens, U373 MG, read-out: Average cell viability, U373, 50 ug/mL",7%
same,viability at 100 µg/mL,"[5]; Homo sapiens, U373 MG, read-out: Average cell viability, U373, 100 ug/mL",6%
same,U373 AVG,"[5]; U373, sample at 1 ug/mL",1.13
same,U373 AVG,"[5]; U373, sample at 10 ug/mL",1.02
same,U373 AVG,"[5]; U373, sample at 50 ug/mL",0.07
same,U373 AVG,"[5]; U373, sample at 100 ug/mL",0.06
same,Fold change in viability AVG,[5]; 1 ug/mL,1.13
same,Fold change in viability AVG,[5]; 10 ug/mL,1.02
same,Fold change in viability AVG,[5]; 50 ug/mL,0.07
same,Fold change in viability AVG,[5]; 100 ug/mL,0.06
same,viability at 1 µg/mL,"[6]; Homo sapiens, SK-OV-3, read-out: Average cell viability, SKOV, 1 ug/mL",125%
same,viability at 10 µg/mL,"[6]; Homo sapiens, SK-OV-3, read-out: Average cell viability, SKOV, 10 ug/mL",105%
same,viability at 50 µg/mL,"[6]; Homo sapiens, SK-OV-3, read-out: Average cell viability, SKOV, 50 ug/mL",78%
same,viability at 100 µg/mL,"[6]; Homo sapiens, SK-OV-3, read-out: Average cell viability, SKOV, 100 ug/mL",34%
same,Fold change in viability AVG,[6]; 1 ug/mL,1.34
same,Fold change in viability AVG,[6]; 10 ug/mL,1.13
same,Fold change in viability AVG,[6]; 50 ug/mL,0.84
same,Fold change in viability AVG,[6]; 100 ug/mL,0.37
same,viability at 1 µg/mL,MDA-MB [7]; 1 ug/mL,102%
same,viability at 10 µg/mL,MDA-MB [7]; 10 ug/mL,105%
same,viability at 50 µg/mL,MDA-MB [7]; 50 ug/mL,30%
same,viability at 100 µg/mL,MDA-MB [7]; 100 ug/mL,25%

# Reference: patent US11292807B2 (OCEANS LTD., priority 2015, dated 2022)
